Results as given in ChEMBL document CHEMBL1201862, “PubChem BioAssay data set” (2004).
Several values for one entry are separate records, joined by “and”; a condition that tells them apart may be missing. Equal entries are not always repeated. Activity calls are given as the source filed them.

How the values were obtained:
[1] = molecular target: T1, Cytochrome P450 1A2 (Homo sapiens, UniProt P05177);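 note: PubChem cytochrome P450 panel assay, CYP1A2 panel member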
T1 sequence (P05177 whole entry): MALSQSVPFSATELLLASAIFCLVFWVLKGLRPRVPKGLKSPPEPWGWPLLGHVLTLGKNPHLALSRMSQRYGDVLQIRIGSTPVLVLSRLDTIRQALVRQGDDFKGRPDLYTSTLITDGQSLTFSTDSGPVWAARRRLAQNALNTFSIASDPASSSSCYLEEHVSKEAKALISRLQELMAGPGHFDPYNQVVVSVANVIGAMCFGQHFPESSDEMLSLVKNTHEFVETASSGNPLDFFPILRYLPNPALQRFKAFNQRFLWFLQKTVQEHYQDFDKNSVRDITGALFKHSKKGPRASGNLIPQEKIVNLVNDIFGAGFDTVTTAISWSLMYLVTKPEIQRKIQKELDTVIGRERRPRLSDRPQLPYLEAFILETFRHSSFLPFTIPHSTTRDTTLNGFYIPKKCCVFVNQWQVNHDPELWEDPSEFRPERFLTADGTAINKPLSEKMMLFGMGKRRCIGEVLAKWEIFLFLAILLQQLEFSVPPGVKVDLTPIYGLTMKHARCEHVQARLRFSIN

[2] = cells; type: functional
[3] = molecular target: Cytochrome P450 3A4 (Homo sapiens, UniProt P08684);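 note: CYP3A4 tested as one member of a cytochrome P450 panel screen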
Cytochrome P450 3A4, sequence (P08684 whole entry): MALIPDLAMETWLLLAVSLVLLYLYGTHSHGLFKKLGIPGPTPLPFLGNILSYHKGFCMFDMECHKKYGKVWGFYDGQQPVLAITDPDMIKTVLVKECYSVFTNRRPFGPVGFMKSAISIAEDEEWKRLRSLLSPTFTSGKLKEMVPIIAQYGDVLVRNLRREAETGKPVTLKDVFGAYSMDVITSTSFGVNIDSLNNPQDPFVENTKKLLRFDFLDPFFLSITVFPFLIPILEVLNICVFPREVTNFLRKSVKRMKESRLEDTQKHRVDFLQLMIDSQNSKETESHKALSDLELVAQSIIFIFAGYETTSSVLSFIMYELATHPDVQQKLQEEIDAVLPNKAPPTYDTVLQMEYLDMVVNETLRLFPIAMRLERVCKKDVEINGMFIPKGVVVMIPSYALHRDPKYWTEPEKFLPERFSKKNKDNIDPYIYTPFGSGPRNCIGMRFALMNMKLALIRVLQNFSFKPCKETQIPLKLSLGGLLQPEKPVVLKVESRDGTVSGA

[4] = Luminescence Cell-Based Dose Retest to Confirm Inhibitors of Cancer Stem Cells. [Related pubchem assays (depositor defined):AID2717, AID2721]; type: functional; details: Homo sapiens
[5] = system: BJ; experiment: BJ-TERT fibroblast viability loss – cell-based, RAS-independent, luminescence, dose response (AID 1933); type: functional; details: Homo sapiens
[6] = system: BJ; experiment: cells; type: functional, cell-based; details: Homo sapiens
[7] = system: BJ; experiment: BJ-TERT-LT-ST fibroblast viability loss – cell-based, RAS-independent, luminescence, dose response (AID 1935); type: functional; details: Homo sapiens;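 note: BJ fibroblasts immortalized with TERT plus LT and ST oncogenes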
[8] = DRD fibroblast viability loss – cell-based, non-viral oncogenic, luminescence, dose response (AID 1934); type: functional; details: Homo sapiens
[9] = molecular target: Cytochrome P450 2C9 (Homo sapiens, UniProt P11712)
Cytochrome P450 2C9, sequence (P11712 whole entry): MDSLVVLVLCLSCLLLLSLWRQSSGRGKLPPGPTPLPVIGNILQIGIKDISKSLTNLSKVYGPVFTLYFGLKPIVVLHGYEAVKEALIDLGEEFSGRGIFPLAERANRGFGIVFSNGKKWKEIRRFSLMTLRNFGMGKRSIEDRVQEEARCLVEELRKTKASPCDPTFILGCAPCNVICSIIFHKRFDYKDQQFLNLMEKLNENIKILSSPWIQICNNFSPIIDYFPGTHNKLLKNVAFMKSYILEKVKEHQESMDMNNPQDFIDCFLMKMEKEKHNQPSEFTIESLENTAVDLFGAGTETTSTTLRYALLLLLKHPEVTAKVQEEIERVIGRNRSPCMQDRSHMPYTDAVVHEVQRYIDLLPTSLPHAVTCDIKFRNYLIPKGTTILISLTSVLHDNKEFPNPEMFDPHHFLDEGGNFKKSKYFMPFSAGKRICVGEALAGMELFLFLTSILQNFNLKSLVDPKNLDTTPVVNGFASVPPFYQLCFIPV

[10] = luciferase reporter signal suppression in cells – H4 neuroglioma cells, luminescence, dose response (AID 1990); type: functional, cell-based
[11] = Luminescence Cell-Based Dose Response HTS to Identify Inhibitors of 5'UTR Stem-Loop Driven Prion Protein mRNA Translation in H4 Neuroglioblastoma Cells. [Related pubchem assays: 1827 (Project Summary), 1813 (Primary HTS)]; type: functional
[12] = alpha-synuclein stem-loop luciferase translation blockers – H4 neuroglioma cells, luminescence, confirmation (AID 1988); type: functional, cell-based
[13] = Luminescence Cell-Based Dose Response HTS to Identify Activators of Luciferase Translation or Activity in H4 […] Cells. [Related pubchem assays: 1829 (Project Summary), 1814 (Primary HTS)]; type: functional
[14] = system: H4; experiment: Luminescence Cell-Based Dose Response HTS to Identify Activators of 5'UTR Stem-Loop Driven Prion Protein mRNA Translation in H4 Neuroglioblastoma Cells. [Related pubchem assays: 1829 (Project Summary), 1814 (Primary HTS)]; type: functional; details: Homo sapiens
[15] = molecular target: Cytochrome P450 2C19 (Homo sapiens, UniProt P33261); experiment: Cytochrome panel assay with activity outcomes. Panel member name: p450-cyp2c19 Compounds with AC50 equal or less than 10 uM are considered active; type: functional; details: read-out: AC50
Cytochrome P450 2C19, sequence (P33261 whole entry): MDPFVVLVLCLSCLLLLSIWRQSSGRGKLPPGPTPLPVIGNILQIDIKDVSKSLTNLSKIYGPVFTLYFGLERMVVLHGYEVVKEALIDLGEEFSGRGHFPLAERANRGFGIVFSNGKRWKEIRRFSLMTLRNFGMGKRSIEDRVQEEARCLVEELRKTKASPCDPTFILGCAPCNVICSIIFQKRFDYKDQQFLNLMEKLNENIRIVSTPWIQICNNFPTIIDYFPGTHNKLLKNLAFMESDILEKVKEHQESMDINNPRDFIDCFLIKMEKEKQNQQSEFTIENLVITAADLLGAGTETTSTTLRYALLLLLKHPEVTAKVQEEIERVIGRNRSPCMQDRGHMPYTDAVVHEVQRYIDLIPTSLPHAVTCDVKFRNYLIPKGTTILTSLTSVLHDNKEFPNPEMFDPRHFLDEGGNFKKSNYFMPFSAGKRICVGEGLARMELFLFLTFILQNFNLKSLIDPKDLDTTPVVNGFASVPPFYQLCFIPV

[16] = molecular target: T2, Rac GTPase-activating protein 1 (Homo sapiens, UniProt Q9H0H5); experiment: blockers of MgcRacGAP-driven Rac1 GTP hydrolysis – biochemical, ADP Hunter fluorescence, primary and confirmatory, confirmation (AID 624330); type: functional
T2 sequence (Q9H0H5 whole entry): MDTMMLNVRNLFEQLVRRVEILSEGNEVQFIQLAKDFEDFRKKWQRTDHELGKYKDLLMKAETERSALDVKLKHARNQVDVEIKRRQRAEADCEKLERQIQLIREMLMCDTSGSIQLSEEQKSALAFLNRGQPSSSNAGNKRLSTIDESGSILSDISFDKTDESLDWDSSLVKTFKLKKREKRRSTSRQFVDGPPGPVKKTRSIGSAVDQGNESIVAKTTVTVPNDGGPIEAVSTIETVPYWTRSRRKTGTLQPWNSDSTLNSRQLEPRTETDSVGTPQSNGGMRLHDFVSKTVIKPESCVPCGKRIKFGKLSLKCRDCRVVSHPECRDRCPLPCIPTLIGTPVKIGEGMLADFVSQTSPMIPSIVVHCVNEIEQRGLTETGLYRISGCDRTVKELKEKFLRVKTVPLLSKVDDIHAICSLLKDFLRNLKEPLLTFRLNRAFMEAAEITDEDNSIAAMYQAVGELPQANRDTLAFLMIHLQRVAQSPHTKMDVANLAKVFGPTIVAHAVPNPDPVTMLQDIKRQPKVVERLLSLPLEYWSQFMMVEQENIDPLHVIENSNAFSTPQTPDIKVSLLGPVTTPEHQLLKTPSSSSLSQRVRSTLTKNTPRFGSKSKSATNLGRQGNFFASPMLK

## CN(CCc1ccc(Cl)c(Cl)c1)[C@H]1CCCC[C@H]1N1CCCC1
[1]
  AC50: 31.6 µM (inconclusive)

## Cc1ccc(OC(=O)c2ccc(Br)o2)cc1
[2]
  IC50: 18.5 µM (active)

## CCNc1ncc2nc(-c3ccc(OC)cc3)c(=O)n(CCC#N)c2n1
[1]
  AC50: 10 µM (inconclusive)
[3]
  AC50: 15.8 µM (inconclusive)

## O=C(CN1CCN(c2ccc(Cl)cc2)CC1)Nc1ccc(F)c(F)c1
[1]
  AC50: 14.1 µM (inconclusive)
[3]
  AC50: 25.1 µM (inconclusive)

## Cc1ccc(NC(=O)/C=C/c2ccc3c(c2)OCO3)nc1
[4]
  AC50: 1.08 µM (active)

## CN1CCN(CC(=O)Nc2ccc([N+](=O)[O-])cc2C(=O)c2ccccc2)CC1
[5]
  EC50: > 150 µM (not active)
[6]
  EC50: > 150 µM (not active)
[7]
  EC50: > 150 µM (not active)
[8]
  EC50: > 150 µM (not active)

## CN(C)S(=O)(=O)c1ccc(C(=O)Oc2ccccc2)cc1
[2]
  IC50: 7.22 µM (active)

## COc1cccc(Cn2c(=O)c(-c3cn(C)c4ccccc34)nc3cnc(N4CCOCC4)nc32)c1
[1]
  AC50: 25.1 µM (inconclusive)

## COc1ccc2c(CC(=O)NCC3CCC(C(=O)O)CC3)cc(=O)oc2c1 (stereo not given)
[1]
  AC50: 22.4 µM (inconclusive)
[9]
  AC50: 15.8 µM (inconclusive)

## CCc1nc(SCC(=O)NC2CC2)c2c(C)c(C)sc2n1
[10]
  EC50: 16.7 µM (active)
[11]
  EC50: > 120 µM (not active)
[12]
  EC50: > 120 µM (not active)

## Cc1cc(C)nc(NC(=NC(=O)Nc2ccc(Cl)cc2)NCCc2c[nH]c3ccccc23)n1
[4]
  AC50: 2.28 µM (active)

## CCOC(=O)C1CSC(CC(=O)Nc2ccc(Cl)c(Cl)c2)C(=O)N1 (stereo not given)
[2]
  IC50: 36.2 µM (active)

## Cc1c(C)c2ccc(OCC(=O)Nc3cccnc3)c(C)c2oc1=O
[13]
  EC50: 22 µM (active)
[14]
  EC50: 16 µM (active)

## COc1ccccc1N1CCN(C(=O)c2ccc([N+](=O)[O-])s2)CC1
[2]
  IC50: 46.4 µM (active)

## COc1ccc(NN/C=C2/C(=O)NC(=O)N(c3ccc(C)c(C)c3)C2=O)cc1
[10]
  EC50: 15.2 µM (active)
[11]
  EC50: > 120 µM (not active)
[12]
  EC50: > 120 µM (not active)
[4]
  AC50: 0.716 µM (active)

## CCOC(=O)COc1ccc(C(=O)Nc2cccc(Cl)c2C)cc1
[2]
  IC50: 0.52 µM (active)

## COc1ccccc1-n1c(SCC(=O)N2CCCC2)nc2cccnc21
[1]
  AC50: 0.1 µM (inconclusive)
[9]
  AC50: 1 µM (inconclusive)

## O=C1NCCc2c1[nH]c1ccc([N+](=O)[O-])cc21
[10]
  EC50: 12.9 µM (active)
[11]
  EC50: 15.6 µM (active)
[12]
  EC50: 16.3 µM (active)

## c1cnc(N2CC[C@@]3(CCCNC3)C2)nc1
[1]
  AC50: 25.1 µM (inconclusive)
[3]
  AC50: 31.6 µM (inconclusive)

## CC(=O)c1cc2c(ccc3ccccc32)oc1=O
[2]
  IC50: 15.4 µM (active)

## O=C(Cc1ccccc1)NC(NCCc1ccccc1)C(Cl)(Cl)Cl (stereo not given)
[1]
  AC50: 25.1 µM (inconclusive)

## CC(C)OCCCNc1nc2c(c(=O)n(Cc3ccccc3F)c(=O)n2C)n1C
[10]
  EC50: 16.8 µM (active)
[11]
  EC50: > 120 µM (not active)
[12]
  EC50: > 120 µM (not active)

## CCc1ccc(C(=O)COC(=O)c2ccc(Cl)nc2)cc1
[2]
  IC50: > 50 µM (active)

## Cc1ccc(NC(=O)C(C)N2C(=O)C3C4CC(C(Br)C4Br)C3C2=O)cc1 (stereo not given)
[1]
  AC50: 25.1 µM (inconclusive)

## COc1ccc2cc(-c3csc(-c4cccnc4)n3)ccc2c1
[13]
  EC50: 0.108 µM (inconclusive)
[14]
  EC50: 22 µM (active)

## COc1ccc2sc(-c3ccc(N(C)C)cc3)c(C#Cc3cncn3C)c2c1
[4]
  AC50: 1.11 µM (active)

## O=C(O)c1cc(-c2ccc(-c3ccccc3)cc2)nc2cc3ccccc3cc12
[15]
  AC50: 3.98 µM (inconclusive)
[1]
  AC50: 0.794 µM (inconclusive)

## O=C1CC(N(O)C2CC(=O)N(Cc3ccccc3)C2=O)C(=O)N1Cc1ccccc1 (stereo not given)
[15]
  AC50: 2 µM (inconclusive)
[1]
  AC50: 39.8 µM (inconclusive)
[9]
  AC50: 11.2 µM (inconclusive)

## Cc1ccc(/C=C2/C(=O)ON=C2c2ccccc2)o1
[5]
  EC50: 12.8 µM (active)
[6]
  EC50: 18.3 µM (active)
[7]
  EC50: > 150 µM (inconclusive)
[8]
  EC50: 12.2 µM (active)
[16]
  IC50: 36.9 µM (active)

## O=C(Cn1cc([N+](=O)[O-])nc1[N+](=O)[O-])N1CCN(c2ccccc2)CC1
[2]
  IC50: 7.01 µM (active)

## COc1ccc(-c2nc(CS(=O)(=O)CC(=O)NCCCc3ccccc3)c(C)o2)cc1
[10]
  EC50: > 120 µM (not active)
[11]
  EC50: > 120 µM (not active)
[12]
  EC50: 14.5 µM (active)

## CC(C)c1ccc(C2C3=C(O)OCC3=Nc3cc4c(cc32)OCO4)cc1 (stereo not given)
[5]
  EC50: 0.746 µM (inconclusive)
[6]
  EC50: 5.49 µM (inconclusive)
[7]
  EC50: 0.386 µM (inconclusive)
[8]
  EC50: 0.88 µM (active)

## COc1ccccc1N1CCN(C(=O)CCc2nnc3ccc(N4CCC(C)CC4)nn23)CC1
[10]
  EC50: 11.2 µM (active)
[11]
  EC50: > 120 µM (not active)
[12]
  EC50: 17.3 µM (active)

## Cc1cc(C)c(NC(=O)CSCc2c(C)noc2C)c(C)c1
[4]
  AC50: > 195 µM (inactive)

## CCc1noc(C)c1C(=O)Nc1nc(-c2cc(C)ccc2C)c(C)s1
[15]
  AC50: 7.08 µM (inconclusive)
[1]
  AC50: 15.8 µM (inconclusive)
[9]
  AC50: 7.94 µM (inconclusive)

## CCOC(=O)C1=C(C)N=C(C)/C(=C(/O)OCC)C1c1ccccc1/C=C/C(=O)OC(C)(C)C (stereo not given)
[4]
  AC50: 3.4 µM (active)

## COc1ccc(-c2c(-c3cc(OC)cc(OC)c3)n(C)c3ccc(-c4cc(F)cc(OC)c4)cc23)cc1
[4]
  AC50: > 195 µM (inactive)

## O=S(=O)(O)c1ccc(/N=N\c2ccc3c(S(=O)(=O)O)cccc3c2O)c2ccccc12
[1]
  AC50: 3.16 µM (inconclusive)

## O=c1cc(-c2ccncc2)oc2c1ccc1ccccc12
[2]
  IC50: 17.9 µM (active)

## COc1ccc(C(=O)O/N=C/c2c(C(F)(F)F)nn(C)c2SCc2ccccc2Cl)cc1
[10]
  EC50: 17 µM (active)
[11]
  EC50: 12.8 µM (active)
[12]
  EC50: 12 µM (active)

## COC(=O)C1=C(C)N=C(C)/C(=C(/O)O[C@@H]2CCCN(Cc3ccccc3)C2)[C@@H]1c1cccc([N+](=O)[O-])c1
[10]
  EC50: 12 µM (active)
[11]
  EC50: 14.6 µM (active)
[12]
  EC50: 9.3 µM (active)

## Cc1nnc(S)n1/N=C/c1ccc(OCc2ccc(Cl)cc2Cl)cc1
[2]
  IC50: 43.8 µM (active)

## N#CC(C#N)=Cc1ccc([N+](=O)[O-])c(O)c1
[1]
  AC50: 31.6 µM (inconclusive)
[3]
  AC50: 1.58 µM (inconclusive)
[9]
  AC50: 31.6 µM (inconclusive)

## CCn1cc(C(=O)O)c(=O)c2cc3c(cc21)OCO3 [OXOLINIC ACID]
[1]
  AC50: 5.01 µM (inconclusive) and 2.51 µM (inconclusive)
